The record followed here is US20020183384A1, “Methods of treating nuclear factor-kappa B mediated diseases and disorders” (priority 2001, published 2002).

By inhibition is commonly meant the drop in the measured response relative to a control, in per cent.

The assay deals with NF-κB mediated transcription. Nature of the assay: NF-κB driven β-lactamase reporter assay in ECV-304 NF-κB.βlaZ cells (AURORA CCF2 fluorescence). Format: cell-based, human. To be noted: 10 μM compound, ECV-304 NF-κB.βlaZ cells stimulated with 10 ng/mL TNF-α or 100 pg/mL IL-1β, 6 hours at 37° C., inhibition of maximum blue/green ratio; for inhibition at 10 µM: Homo sapiens, read-out: Percent Inhibition at 10 μM. In short, it runs like this: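 ECV-304 cells (clone 1E8) stably carrying a β-lactamase reporter driven by 5 HIV-1 NF-κB sites, plated in M-199 with 2% FBS, compound at 10 μM final. CCF2 read at 395 nm excitation, blue 460 nm/green 530 nm emission ratio; IC50 from dose-response curve.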
On the technique in general: Reporter assays use an easily measured gene product as a stand-in for the process of interest.

Where two headings read alike, the source gives them in different places.

With `CC(C)c1cccc(C(C)C)c1OS(=O)(=O)NC(=O)Oc1c(C(C)(C)C)cccc1C(C)(C)C` [Example 91, Carbamic acid, [[2,6-bis(1-methylethyl)phenoxy]sulfonyl]-, 2,6-bis(1,1-dimethylethyl)phenyl ester], the inhibition at 10 µM was 39.7%. On the same count and under the same terms, in the case of `CCCCCN(CCCCC)S(=O)(=O)NC(=O)Oc1c(C(C)(C)C)cc(C)cc1C(C)(C)C` [Example 31, Carbamic acid, [(dipentylamino)sulfonyl]-, 2,6-bis(1,1-dimethylethyl)-4-methylphenyl ester] it was 74%. Take `CC(C)c1cccc(C(C)C)c1NC(=O)NS(=O)(=O)N(C(C)C)C(C)C` [Example 20, N-[2,6-bis(1-methylethyl)phenyl]-N′-[[bis(1-methylethyl)amino]-sulfonyl]-urea]: where the note is “ECV-304, 6 h”, the inhibition at 10 µM is less than 10%. For `CCCCN(CCCC)S(=O)(=O)NC(=O)Oc1c(C(C)(C)C)cc(C)cc1C(C)(C)C` [Example 30, Carbamic acid, [(dibutylamino)sulfonyl]-, 2,6-bis(1,1-dimethylethyl)-4-methylphenyl ester], the inhibition at 10 µM amounted to 52%. Same read-out and setting: in the case of `CC(C)c1cccc(C(C)C)c1OC(=O)NS(=O)(=O)NC(c1ccccc1)c1ccccc1` [Example 1, Carbamic acid, [[(diphenylmethyl)amino]sulfonyl]-, 2,6-bis(1-methylethyl)phenyl ester] it was 24.8%. For `CC(C)c1cc(C(C)C)c(OC(=O)NS(=O)(=O)Oc2c(C(C)C)cccc2C(C)C)c(C(C)C)c1` [Example 124, Carbamic acid, [[2,6-bis(1-methylethyl)phenoxy]sulfonyl]-, 2,4,6-tris(1-methylethyl)phenyl ester], the inhibition at 10 µM was 11.3%.

On to `CC(C)c1cccc(C(C)C)c1NS(=O)(=O)NC(=O)N(Cc1ccccc1)Cc1ccccc1` [Example 29, N′-[[[2,6-bis(1-methylethyl)phenyl]amino]sulfonyl]-N,N-bis(phenylmethyl)-urea], for which, where the note is “ECV-304, 6 h”, the inhibition at 10 µM came to 38.5%. The same measure, in the same setting: in the case of `CCc1cccc(CC)c1COC(=O)NS(=O)(=O)Oc1c(C(C)C)cccc1C(C)C` [Example 140, Carbamic acid, [[2,6-bis(1-methylethyl)phenoxy]sulfonyl]-, (2,6-diethylphenyl)methyl ester] it was 38.7%.

As for `CC(C)c1cccc(C(C)C)c1OC(=O)NS(=O)(=O)NCC(c1ccccc1)c1ccccc1` [Example 10, Carbamic acid, [[(2,2-diphenylethyl)amino]sulfonyl]-, 2,6-bis(1-methylethyl)-phenyl ester], the inhibition at 10 µM was 39.7%. On to `CC(C)c1cccc(C(C)C)c1OS(=O)(=O)NC(=O)OC1CCCCC1` [Example 133, Carbamic acid, [[2,6-bis(1-methylethyl)phenoxy]sulfonyl]-, cyclohexyl ester], for which the inhibition at 10 µM (ECV-304, 6 h) was less than 10%. Consider `CC(C)c1cccc(C(C)C)c1OS(=O)(=O)NC(=O)OC1[C@@H](C(C)C)CCC[C@H]1C(C)C` (stereo partly drawn) [Example 164, Carbamic acid, [[2,6-bis(1-methylethyl)phenoxy]sulfonyl]-, (2R,6S)-2,6-bis(1-methylethyl)cyclohexyl ester], for which the inhibition at 10 µM (ECV-304, 6 h) stood at 55.2%. Consider `Cc1cc(C)c(C)c(OC(=O)NS(=O)(=O)Oc2c(C(C)C)cccc2C(C)C)c1C` [Example 166, Carbamic acid, [[2,6-bis(1-methylethyl)phenoxy]sulfonyl]-, 2,3,5,6-tetramethylphenyl ester], for which the inhibition at 10 µM is less than 10%. Still for that read-out and setting: in the case of `CC(C)c1cccc(C(C)C)c1OC(=O)NS(=O)(=O)N1CCOCC1` [Example 58, Carbamic acid, (4-morpholinylsulfonyl)-, 2,6-bis(1-methylethyl)phenyl ester] it was less than 10%. For the compound `CC(C)c1cc(C(C)C)c(CC(=O)NS(=O)(=O)Oc2c(C(C)C)cc(C(N)=O)cc2C(C)C)c(C(C)C)c1` [Example 234, [(2,4,6-Triisopropyl-phenyl)-acetyl]-sulfamic acid 4-carbamoyl-2,6-diisopropyl-phenyl ester], the inhibition at 10 µM (ECV-304, 6 h) is 76.7%. With `CCCCCCCCCCCCN(CCCCCCCCCCCC)S(=O)(=O)NC(=O)Nc1c(C(C)C)cccc1C(C)C` [Example 76, Urea, N-[2,6-bis(1-methylethyl)phenyl]-N′-[(didodecylamino)sulfonyl]-], the inhibition at 10 µM (ECV-304, 6 h) is less than 10%. Still for that read-out and setting: the figure for `CC(C)c1cc(C(C)C)c(CC(=O)NS(=O)(=O)Oc2c(C(C)C)cc(NC(=O)C(CCCCNC(=O)OC(C)(C)C)NC(=O)OC(C)(C)C)cc2C(C)C)c(C(C)C)c1` (stereo not shown) [Example 195, [5-tert-Butoxycarbonylamino-5-(3,5-diisopropyl-4-{[(2,4,6-triisopropyl-phenyl)-acetyl]sulfamoyloxy}-phenylcarbamoyl)-pentyl]-carbamic acid tert-butyl ester] is 91.8%. Consider `CC(C)c1cccc(C(C)C)c1OC(=O)NS(=O)(=O)Nc1ccccc1` [Example 13, Carbamic acid, [(phenylamino)sulfonyl]-, 2,6-bis(1-methylethyl)phenyl ester], for which the inhibition at 10 µM is less than 10%. For the compound `CC(C)c1cccc(C(C)C)c1OS(=O)(=O)NC(=O)NCC1(c2ccc(N(C)C)cc2)CCCC1` [Example 217, Sulfamic acid, [[[[1-[4-(dimethylamino)phenyl]cyclopenty]methyl]-amino]carbonyl]-2,6-bis(1-methylethyl)phenyl ester], the “Percent Inhibition at 10 μM” value amounted to 37.08%. On to `CCCCCCCCN(CCCCCCCC)S(=O)(=O)NC(=O)Oc1c(C(C)(C)C)cc(C)cc1C(C)(C)C` [Example 46, Carbamic acid, [(dioctylamino)sulfonyl]-, 2,6-bis(1,1-dimethylethyl)-4-methylphenyl ester], for which the inhibition at 10 µM stood at 34.8%. As for `CC(C)c1cccc(C(C)C)c1OS(=O)(=O)NC(=O)Sc1c(C(C)C)cccc1C(C)C` [Example 139, Carbamothioic acid, [[2,6-bis(1-methylethyl)phenoxy]sulfonyl]-, S-[2,6-bis(1-methylethyl)phenyl] ester], the inhibition at 10 µM (ECV-304, 6 h) came to 65.5%. Turning to `CC(C)c1cccc(C(C)C)c1OC(=O)NS(=O)(=O)N(C(C)C)C1CCCCC1` [Example 86, Carbamic acid, [[cyclohexyl(1-methylethyl)amino]sulfonyl]-, 2,6-bis(1-methylethyl)phenyl ester], the inhibition at 10 µM was determined as 16%. Take `CC(C)c1cccc(C(C)C)c1OC(=O)NS(=O)(=O)N1CCCC1` [Example 66, Carbamic acid, (1-pyrrolidinylsulfonyl)-, 2,6-bis(1-methylethyl)phenyl ester]: the inhibition at 10 µM is less than 10%. As for `CCCCCCCCCCCCCCS(=O)(=O)NC(=O)Nc1c(C(C)C)cccc1C(C)C` [Example 240, N-[2,6-bis(1-methylethyl)phenyl]-N′-(tetradecylsulfonyl)-urea], where the note is “ECV-304, 6 h”, the inhibition at 10 µM stood at 10.3%. In the case of `CCCCN(CCCC)S(=O)(=O)NC(=O)Oc1c(C(C)C)cccc1C(C)C` [Example 27, Carbamic acid, [(dibutylamino)sulfonyl]-, 2,6-bis(1-methylethyl)phenyl ester], the inhibition at 10 µM is 26.1%. As for `CC(C)c1cccc(C(C)C)c1OS(=O)(=O)NC(=O)Cc1ccccc1C(F)(F)F` [Example 158, [(2-Trifluoromethyl-phenyl)-acetyl]-sulfamic acid 2,6-diisopropyl-phenyl ester], the inhibition at 10 µM (ECV-304, 6 h) came out at 25.9%. Still for that read-out and setting: in the case of `CC(C)c1cccc(C(C)C)c1NC(=O)NS(=O)(=O)NC(c1ccccc1)c1ccccc1` [Example 8, Urea, N-[2,6-bis(1-methylethyl)phenyl]-N′-[[(diphenylmethyl)amino]-sulfonyl]-] it was less than 10%. Still for that read-out and setting: the figure for `CCOc1ccc2nc(S(=O)(=O)NC(=O)Nc3c(C(C)C)cccc3C(C)C)sc2c1` [Example 239, N-[2,6-bis(1-methylethyl)phenyl]-N′-[(6-ethoxy-2-benzothiazolyl)sulfonyl]-urea] is less than 10%. Still for that read-out and setting: the figure for `CC(C)c1cccc(C(C)C)c1NC(=O)NS(=O)(=O)N(C(C)C)C1CCCCC1` [Example 63, Urea, N-[2,6-bis(1-methylethyl)phenyl]-N′-[[cyclohexyl(1-methylethyl)amino]-sulfonyl]-] is 23%; for `CC(C)c1cccc(C(C)C)c1OS(=O)(=O)NC(=O)N1CCc2ccccc21` [Example 222, (2,3-Dihydro-indole-1-carbonyl)-sulfamic acid 2,6-diisopropyl-phenyl ester] it is less than 10%. Consider `CCOC(=O)CCCCCc1cc(C(C)C)c(OS(=O)(=O)NC(=O)Cc2c(C(C)C)cc(C(C)C)cc2C(C)C)c(C(C)C)c1` [Example 188, 6-(3,5-Diisopropyl-4-{[(2,4,6-triisopropyl-phenyl)-acetyl]sulfamoyloxy}-phenyl)-hexanoic acid ethyl ester], for which the inhibition at 10 µM (ECV-304, 6 h) is 50.8%. Same read-out and setting: in the case of `CCCCCCCCCCCCCCCCCCOS(=O)(=O)NC(=O)Nc1c(C(C)C)cccc1C(C)C` [Example 60, Sulfamic acid, [[[2,6-bis(1-methylethyl)phenyl]amino]carbonyl]-, octadecyl ester] it was less than 10%; in that of `C=CCN(CC)S(=O)(=O)NC(=O)Nc1c(C(C)C)cccc1C(C)C` [Example 73, Urea, N-[2,6-bis(1-methylethyl)phenyl]-N′-[[ethyl(2-propenyl)amino]-sulfonyl]-], less than 10%. For `CCCCCCNS(=O)(=O)NC(=O)Oc1c(C(C)C)cccc1C(C)C` [Example 67, Carbamic acid, [(hexylamino)sulfonyl]-, 2,6-bis(1-methylethyl)phenyl ester], the inhibition at 10 µM amounted to 13.8%.

`CCCCCCCCCCCCCS(=O)(=O)NC(=O)Nc1c(C(C)C)cccc1C(C)C` [Example 242, N-[2,6-bis(1-methylethyl)phenyl]-N′-(tridecylsulfonyl)urea]: the inhibition at 10 µM (ECV-304, 6 h) was less than 10%.
